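Cells were grown in 96-well plates and exposed to each compound for 48 hours at five concentrations; endpoints were interpolated linearly between bracketing concentrations, or set to the highest concentration if not reached. GI50 marks 50% less growth.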 Activity calls are given as the source filed them. Cut-off read from the data, not from the text of the source: active = GI50 up to about 1.1 µM and inactive = higher.
Tests used:
Assay in all cases: NCI tumour cell line growth inhibition, 48 h
COLO 205 = system: COLO 205
SNB-19 = system: SNB-19
HL-60 = system: HL-60
NCI-H522 = system: NCI-H522
NCI-H226 = system: NCI-H226
LXFL 529 = system: LXFL 529
TK-10 = system: TK-10
NCI-H23 = system: NCI-H23
HT-29 = system: HT-29
SK-MEL-5 = system: SK-MEL-5
SK-OV-3 = system: SK-OV-3
CCRF-CEM = system: CCRF-CEM
U-251 = system: U-251
SF-539 = system: SF-539
SK-MEL-28 = system: SK-MEL-28
DLD-1 = system: DLD-1
SF-295 = system: SF-295
HOP-92 = system: HOP-92
SR = system: SR
M19-MEL = system: M19-MEL
SW-620 = system: SW-620
IGROV-1 = system: IGROV-1
OVCAR-8 = system: OVCAR-8
HOP-62 = system: HOP-62
HCC 2998 = system: HCC 2998
ACHN = system: ACHN
UO-31 = system: UO-31
RPMI-8226 = system: RPMI-8226
MOLT-4 = system: MOLT-4
OVCAR-3 = system: OVCAR-3
K562 = system: K562
HCT-116 = system: HCT-116
NCI-H460 = system: NCI-H460
SF-268 = system: SF-268
A549 = system: A549
KM12 = system: KM12
UACC-62 = system: UACC-62
UACC-257 = system: UACC-257
Malme-3M = system: Malme-3M
SN12C = system: SN12C
A498 = system: A498
T47D = system: T47D
MCF7 = system: MCF7
Hs-578T = system: Hs-578T
EKVX = system: EKVX
MDA-MB-231 = system: MDA-MB-231
OVCAR-5 = system: OVCAR-5
DU-145 = system: DU-145
MDA-N = system: MDA-N
NCI/ADR-RES = system: NCI/ADR-RES
SNB-75 = system: SNB-75
BT-549 = system: BT-549
CAKI-1 = system: CAKI-1
786-0 = system: 786-0
HCT-15 = system: HCT-15
PC-3 = system: PC-3
RXF 393 = system: RXF 393
LOX IMVI = system: LOX IMVI
M14 = system: M14
SK-MEL-2 = system: SK-MEL-2
OVCAR-4 = system: OVCAR-4
MDA-MB-435 = system: MDA-MB-435

Measured: GI50

CCOC(=O)/C(C#N)=C1/Sc2c(ncn(/N=C/c3ccc(OC)cc3)c2=O)N1c1ccccc1
inactive: COLO 205 > 100 µM | SNB-19 33.5 µM | HL-60 > 100 µM | NCI-H522 25.4 µM | NCI-H226 36.1 µM | LXFL 529 41.1 µM | TK-10 50.2 µM | NCI-H23 54.8 µM | HT-29 70.6 µM | SK-MEL-5 > 100 µM | SK-OV-3 40.4 µM | CCRF-CEM > 100 µM | U-251 37.4 µM | SF-539 14.8 µM | SK-MEL-28 28.7 µM | DLD-1 > 100 µM | SF-295 19.1 µM | HOP-92 13.9 µM | SR > 100 µM | M19-MEL 74 µM | SW-620 > 100 µM | IGROV-1 56.2 µM | OVCAR-8 40.6 µM | HOP-62 22.2 µM | HCC 2998 > 100 µM | ACHN > 100 µM | UO-31 > 100 µM | RPMI-8226 > 100 µM | MOLT-4 > 100 µM | OVCAR-3 41.4 µM | K562 62.5 µM | HCT-116 > 100 µM | NCI-H460 28.9 µM | SF-268 14.8 µM | A549 67.8 µM | KM12 > 100 µM | UACC-62 31.1 µM | UACC-257 29.2 µM

O=Cc1cc(O)ccc1Br
3.15 µM: HCT-15
inactive: Malme-3M 18.5 µM | COLO 205 41.7 µM | SNB-19 12.5 µM | SN12C 19.8 µM | A498 > 100 µM | HL-60 1.88 µM | NCI-H522 38.4 µM | NCI-H226 28.8 µM | TK-10 11.3 µM | T47D 42.1 µM | NCI-H23 21.7 µM | HT-29 18.2 µM | MCF7 4.41 µM | SK-MEL-5 17.3 µM | SK-OV-3 34.7 µM | CCRF-CEM 3.08 µM | U-251 3.74 µM | Hs-578T 9.31 µM | EKVX 65.6 µM | SF-539 4.3 µM | SK-MEL-28 15 µM | MDA-MB-231 36.1 µM | SF-295 7 µM | HOP-92 19 µM | OVCAR-5 32.1 µM | SR 2.63 µM | DU-145 44.7 µM | SW-620 4.78 µM | IGROV-1 28.1 µM | OVCAR-8 5.05 µM | HOP-62 9.71 µM | MDA-N 3.1 µM | NCI/ADR-RES 12.1 µM | HCC 2998 11.8 µM | SNB-75 14.4 µM | ACHN 19.8 µM | UO-31 19.5 µM | RPMI-8226 2.81 µM | MOLT-4 4.15 µM | BT-549 11.6 µM | OVCAR-3 6.3 µM | CAKI-1 20 µM | K562 2.86 µM | 786-0 22.6 µM | PC-3 13.2 µM | RXF 393 27.4 µM | HCT-116 3.31 µM | LOX IMVI 5.46 µM | NCI-H460 19.7 µM | SF-268 9.93 µM | A549 > 100 µM | M14 5.45 µM | KM12 23.5 µM | SK-MEL-2 44.4 µM | UACC-62 6.9 µM | OVCAR-4 15 µM | UACC-257 41.5 µM | MDA-MB-435 2.5 µM

CCCNc1ncnc2[nH]ncc12
inactive: Malme-3M > 100 µM | COLO 205 > 100 µM | SNB-19 > 100 µM | SN12C > 100 µM | A498 > 100 µM | HL-60 > 100 µM | NCI-H522 > 100 µM | TK-10 > 100 µM | T47D > 100 µM | NCI-H23 > 100 µM | HT-29 > 100 µM | MCF7 91.4 µM | SK-MEL-5 > 100 µM | SK-OV-3 > 100 µM | CCRF-CEM > 100 µM | U-251 > 100 µM | Hs-578T > 100 µM | EKVX > 100 µM | SF-539 > 100 µM | SK-MEL-28 > 100 µM | MDA-MB-231 > 100 µM | SF-295 > 100 µM | HOP-92 87.5 µM | OVCAR-5 > 100 µM | SR > 100 µM | DU-145 > 100 µM | SW-620 > 100 µM | IGROV-1 > 100 µM | OVCAR-8 > 100 µM | HOP-62 > 100 µM | MDA-N > 100 µM | NCI/ADR-RES > 100 µM | HCC 2998 > 100 µM | SNB-75 > 100 µM | ACHN > 100 µM | UO-31 > 100 µM | RPMI-8226 > 100 µM | MOLT-4 > 100 µM | BT-549 > 100 µM | OVCAR-3 > 100 µM | CAKI-1 > 100 µM | K562 > 100 µM | 786-0 > 100 µM | PC-3 > 100 µM | RXF 393 > 100 µM | HCT-116 > 100 µM | LOX IMVI > 100 µM | NCI-H460 > 100 µM | SF-268 > 100 µM | A549 > 100 µM | M14 > 100 µM | KM12 > 100 µM | SK-MEL-2 > 100 µM | UACC-62 > 100 µM | OVCAR-4 > 100 µM | UACC-257 > 100 µM | MDA-MB-435 > 100 µM
> 100 µM: HCT-15

O=C1c2ccccc2C(=O)c2c(NC3CCCCC3)ccc(Nc3ccc(S(=O)(=O)O)cc3)c21
32.6 µM: HCT-15
inactive: Malme-3M 23.4 µM | COLO 205 20.1 µM | SNB-19 84.5 µM | SN12C 20.6 µM | A498 > 100 µM | HL-60 31.6 µM | NCI-H522 20.6 µM | NCI-H226 > 100 µM | TK-10 > 100 µM | T47D 29 µM | NCI-H23 77.1 µM | HT-29 39.4 µM | MCF7 21.3 µM | SK-MEL-5 63 µM | SK-OV-3 > 100 µM | CCRF-CEM 26.3 µM | U-251 29.6 µM | Hs-578T > 100 µM | EKVX 17 µM | SF-539 32.2 µM | SK-MEL-28 > 100 µM | MDA-MB-231 22.5 µM | SF-295 > 100 µM | HOP-92 > 100 µM | OVCAR-5 > 100 µM | SR 36.1 µM | DU-145 > 100 µM | SW-620 35.2 µM | IGROV-1 32.7 µM | OVCAR-8 35.3 µM | HOP-62 > 100 µM | MDA-N 46 µM | NCI/ADR-RES > 100 µM | HCC 2998 26.5 µM | SNB-75 > 100 µM | ACHN 38.8 µM | UO-31 59 µM | RPMI-8226 45.2 µM | MOLT-4 34.9 µM | BT-549 43.8 µM | OVCAR-3 28.2 µM | CAKI-1 > 100 µM | K562 52 µM | 786-0 45.7 µM | PC-3 22.6 µM | RXF 393 83.6 µM | HCT-116 29.7 µM | LOX IMVI 32.7 µM | NCI-H460 62.5 µM | SF-268 34.8 µM | A549 33.9 µM | M14 35.1 µM | KM12 30.9 µM | SK-MEL-2 21.8 µM | UACC-62 > 100 µM | OVCAR-4 33.9 µM | UACC-257 23.9 µM | MDA-MB-435 39.1 µM

Cc1ccc(/C=N/Nc2ccccn2)s1
inactive: Malme-3M > 100 µM | COLO 205 > 100 µM | SNB-19 > 100 µM | SN12C > 47.4 µM | A498 > 100 µM | HL-60 > 76.7 µM | NCI-H522 12.5 µM | NCI-H226 > 56.5 µM | TK-10 > 31.6 µM | T47D > 57 µM | NCI-H23 > 100 µM | HT-29 > 67.8 µM | MCF7 21.1 µM | SK-MEL-5 > 100 µM | SK-OV-3 > 100 µM | CCRF-CEM > 100 µM | U-251 > 100 µM | Hs-578T > 100 µM | EKVX > 72.8 µM | SF-539 > 100 µM | SK-MEL-28 > 100 µM | MDA-MB-231 > 41.1 µM | SF-295 > 100 µM | HOP-92 > 100 µM | OVCAR-5 > 100 µM | SR > 100 µM | DU-145 > 100 µM | SW-620 > 100 µM | IGROV-1 > 100 µM | OVCAR-8 > 100 µM | HOP-62 > 100 µM | MDA-N > 54 µM | NCI/ADR-RES > 40.6 µM | HCC 2998 > 100 µM | SNB-75 36.7 µM | ACHN > 100 µM | UO-31 97.7 µM | RPMI-8226 > 100 µM | MOLT-4 > 100 µM | BT-549 81.3 µM | OVCAR-3 > 55.7 µM | CAKI-1 > 100 µM | 786-0 > 54.7 µM | PC-3 > 100 µM | RXF 393 > 100 µM | HCT-116 > 44.7 µM | LOX IMVI > 50.4 µM | NCI-H460 > 100 µM | SF-268 > 64.6 µM | A549 > 100 µM | M14 > 100 µM | KM12 > 100 µM | SK-MEL-2 > 100 µM | UACC-62 > 100 µM | OVCAR-4 > 100 µM | UACC-257 > 100 µM | MDA-MB-435 > 100 µM
> 72.6 µM: HCT-15

Reference: ChEMBL document CHEMBL1201862, “PubChem BioAssay data set” (2004)
